Experimental data from patent publication US20250186489A1, “REPROGRAMMING OF CELLS TO TYPE 1 CONVENTIONAL DENDRITIC CELLS OR ANTIGEN-PRESENTING CELLS” (Asgard Therapeutics AB, priority 2021, published 2025).

Assays:
[1] = tested on: Clec9a-tdTomato mouse embryonic fibroblasts (MEFs); test: Replacement of PU.1 by homologs in cDC1 reprogramming of Clec9a-tdTomato MEFs; assay type: cell-based; details: for tdTomato^+ cells (Clec9a reporter activation): factor in combination with IRF8 and BATF3
Description: Coding regions of SPIB and SPIC were individually cloned in the pFUW-TetO plasmid. Lentiviral particles encoding each individual transcription factor or the reverse tetracycline transactivator M2rtTA under the control of constitutively active human ubiquitin C promoter (pFUW-UbC-M2rtTA) were used for co-transduction (Rosa et al. 2018). Reprogramming efficiency was evaluated by flow cytometry in Clec9a-tdTomato mouse embryonic fibroblasts (MEFs) 9 days after transcription factor overexpression.

[2] = tested on: human embryonic fibroblasts (HEF); test: cDC1 reprogramming efficiency of human embryonic fibroblasts, flow cytometry for CD45+HLA-DR+ cells at day 9; assay type: cell-based; details: for effect on cDC1 reprogramming efficiency when co-expressed with PU.1, IRF8 and BATF3: HEF co-transduced with TetO-PIB, M2rtTA and the individual factor
Description: HEFs, HDFs and Clec9a-tdTomato MEFs were seeded at a density of 40,000 cells per well and MSCs at a density of 50,000 cells per well on 0.1% gelatin coated 6-well plates. On the following day, cells were incubated overnight with either a ratio of 1:1 TetO-PIB and M2rtTA, SFFV-PIB-GFP or SFFV-GFP lentiviral particles in media supplemented with 8 μg/ml polybrene. Cells were transduced overnight twice in consecutive days and media replaced in between. After the second transduction, media was replaced by normal growth media (day 0). When using TetO-PIB, media was supplemented with Dox (1 μg/ml). Media was changed every 2-3 days for the duration of cultures. When stated, media was supplemented with LPS (100 ng/ml, Enzo), Poly I:C (25 μg/ml, InvivoGen) and R848 (3 μg/ml, InvivoGen) overnight. Cytokines were added at day 2 and kept for the duration of cultures; For reprogramming in xeno-free conditions, MSCs were cultured in X-Vivo 15 (Lonza) after transduction and media changed every 2-3 days for the duration of cultures.
For the analysis of surface marker expression, human and mouse cells were dissociated and incubated with antibodies diluted in PBS 5% FBS at 4° C. for 30 minutes in the presence of mouse or rat serum (1/100, GeneTex), for human and mouse cells respectively, to block unspecific binding. Cells were washed and resuspended in PBS 5% FBS and analyzed in BD FACSCanto II or BD LSRFortessa flow cytometers (BD Biosciences), unless stated otherwise. DAPI was used for dead cell exclusion. Flow cytometry data were analyzed using FlowJo software (FLOWJO, LLC, version 10.6.1). All flow cytometry analyses were performed in live single cell gates.
Coding regions of ID2, TXNIP, ZFP36, PLEK, SUB1, JUNB, CREM, KLF4, MXD1, LITAF, IRF7, FOS, NMI, TFEC, SP110, IRF5, STAT2, BATF, ZNF267, IRF1, RELB and BATF2 were individually cloned in the pFUW-TetO plasmid. […] Reprogramming efficiency was evaluated by flow cytometry in HEFs 9 days after transcription factor overexpression.
17 human hematopoietic cytokines including inflammatory mediators (Table 3) were individually added to the culture media 2 days after PIB induction in HEFs, and reprogramming efficiency was measured at day 9. Changes in reprogramming efficiency were analysed using both single cytokines and combinations of two or three cytokines.
The impact on reprogramming efficiency after a combination of cytokine treatment and SFFV-driven PIB induction was evaluated. The scPred system was used for integration with “natural” DCs. See previous Examples for experimental details.

[3] = HEF with SFFV-PIB in the presence of anti-inflammatory cytokine
[4] = HEF with Dox-inducible PIB, individual cytokine

Question: How did the “reporter activation by the factor alone” value [1] turn out when “SPIB: ETS-domain transcription factor, PU.1 homolog, SEQ ID NO: 23” was run?
Answer: not able to activate the DC-specific reporter

Question: And the “tdTomato^+ cells (Clec9a reporter activation)” value [1]?
Answer: about 8.14±1.16%

Question: What about the “tdTomato^+ cells co-expressing CD45 and MHC-II” value ([1]; factor in combination with IRF8 and BATF3, gated in tdTomato^+) of the same molecule?
Answer: 33.63±3.76%

Question: What about the “ability to replace PU.1 in cDC1 reprogramming” value ([1]; with IRF8 and BATF3) of the same molecule?
Answer: could replace PU.1

Question: And the “fold increase in tdTomato^+ cells co-expressing CD45 and MHC-II in comparison to PU.1” value ([1]; with IRF8 and BATF3)?
Answer: 2 fold

Question: For “SPIC: ETS-domain transcription factor, PU.1 homolog, SEQ ID NO: 25”, which “reporter activation by the factor alone” value [1] is on record?
Answer: not able to activate the DC-specific reporter

Question: And the “tdTomato^+ cells (Clec9a reporter activation)” value [1]?
Answer: 1.46±0.73%

Question: What about the “ability to replace PU.1 in cDC1 reprogramming” value ([1]; with IRF8 and BATF3) of the same molecule?
Answer: could replace PU.1

Question: For TNF-α, which “fold increase in reprogramming efficiency versus condition without cytokines” value ([2]; HEF with Dox-inducible PIB) is on record?
Answer: 3 fold

Question: For IL-6: cytokine, which “fold increase in reprogramming efficiency versus condition without cytokines” value ([2]; HEF with Dox-inducible PIB) is on record?
Answer: 2.5 fold

Question: Which results are given for TGF-β?
Answer: fold reduction of reprogramming efficiency [2, 3]: 2 fold; impact on CD40 expression in hiDCs [2, 3]: did not impact CD40 expression

Question: How did the “impact on reprogramming efficiency” value [2, 4] turn out when GM-CSF: cytokine was run?
Answer: did not impact reprogramming efficiency

Question: How did the “fold increase in reprogramming efficiency versus condition without cytokines” value ([2]; HEF with Dox-inducible PIB) turn out when IL-1β: cytokine was run?
Answer: 3 fold

B1: IL-10: anti-inflammatory cytokine (protein, UniProt P22301 19-178, looked up)
Interleukin-10: SPGQGTQSENSCTHFPGNLPNMLRDLRDAFSRVKTFFQMKDQLDNLLLKESLLEDFKGYLGCQALSEMIQFYLEEVMPQAENQDPDIKAHVNSLGENLKTLRLRLRRCHRFLPCENKSKAVEQVKNAFNKLQEKGIYKAMSEFDIFINYIEAYMTMKIRN
Question: B1 was tested. Which “impact on CD40 expression in hiDCs” value [2, 3] did it give?
Answer: did not impact CD40 expression

Question: What about the “impact on reprogramming efficiency” value [2, 3] of the same molecule?
Answer: did not impact reprogramming efficiency

B2: IL-4: cytokine (protein, UniProt P05112 25-153, looked up)
Interleukin-4: HKCDITLQEIIKTLNSLTEQKTLCTELTVTDIFAASKNTTEKETFCRAATVLRQFYSHHEKDTRCLGATAQQFHRHKQLIRFLKRLDRNLWGLAGLNSCPVKEANQSTLENFLERLKTIMREKYSKCSS
Question: How did the “impact on reprogramming efficiency” value [2, 4] turn out when B2 was run?
Answer: did not impact reprogramming efficiency

B3: IRF7: transcription factor of the interferon regulatory factor family, SEQ ID NO: 21 (protein, listed as Homo sapiens)
chain: MPVPERPAAGPDSPRPGTRRAAPRVLFGEWLLGEISSGCYEGLQWLDEARTCFRVPWKHFARKDLSEADARIFKAWAVARGRWPPSSRGGGPPPEAETAERAGWKTNFRCALRSTRRFVMLRDNSGDPADPHKVYALSRELCWREGPGTDQTEAEAPAAVPPPQGGPPGPFLAHTHAGLQAPGPLPAPAGDKGDLLLQAVQQSCLADHLLTASWGADPVPTKAPGEGQEGLPLTGACAGGPGLPAGELYGWAVETTPSPGPQPAALTTGEAAAPESPHQAEPYLSPSPSACTAVQEPSPGALDVTIMYKGRTVLQKVVGHPSCTFLYGPPDPAVRATDPQQVAFPSPAELPDQKQLRYTEELLRHVAPGLHLELRGPQLWARRMGKCKVYWEVGGPPGSASPSTPACLLPRNCDTPIFDFRVFFQELVEFRARQRRGSPRYTIYLGFGQDLSAGRPKEKSLVLVKLEPWLCRVHLEGTQREGVSSLDSSSLSLCLSSANSLYDDIECFLMELEQPA
modifications: Interferon regulatory factor 7 [Homo sapiens], peptide sequence
Question: With B3 as the molecule, how does the “effect on cDC1 reprogramming efficiency when co-expressed with PU.1, IRF8 and BATF3” value [2] read?
Answer: increased cDC1 reprogramming efficiency

B4: FLT3L: cytokine (protein, UniProt P49771 27-235, looked up)
Fms-related tyrosine kinase 3 …: TQDCSFQHSPISSDFAVKIRELSDYLLQDYPVTVASNLQDEELCGGLWRLVLAQRWMERLKTVAGSKMQGLLERVNTEIHFVTKCAFQPPPSCLRFVQTNISRLLQETSEQLVALKPWITRQNFSRCLELQCQPDSSTLPPPWSPRPLEATAPTAPQPPLLLLLLLPVGLLLLAAAWCLHWQRTRRRTPRPGEQVPPVPSPQDLLLVEH
Question: With B4 as the molecule, how does the “impact on reprogramming efficiency” value [2, 4] read?
Answer: did not impact reprogramming efficiency

B5: Oncostatin M: cytokine (protein, UniProt P13725 26-221, looked up)
Oncostatin-M: AAIGSCSKEYRVLLGQLQKQTDLMQDTSRLLDPYIRIQGLDVPKLREHCRERPGAFPSEETLRGLGRRGFLQTLNATLGCVLHRLADLEQRLPKAQDLERSGLNIEDLEKLQMARPNILGLRNNIYCMAQLLDNSDTAEPTKAGRGASQPPTPTPASDAFQRKLEGCRFLHGYHRFMHSVGRVFSKWGESPNRSRR
Question: With B5 as the molecule, how does the “fold increase in reprogramming efficiency versus condition without cytokines” value ([2]; HEF with Dox-inducible PIB) read?
Answer: 4 fold

B6: BATF: nuclear basic leucine zipper transcription factor, SEQ ID NO: 19 (protein, listed as Homo sapiens)
chain: MPHSSDSSDSSFSRSPPPGKQDSSDDVRRVQRREKNRIAAQKSRQRQTQKADTLHLESEDLEKQNAALRKEIKQLTEELKYFTSVLNSHEPLCSVLAASTPSPPEVVYSAHAFHQPHVSSPRFQP
modifications: basic leucine zipper transcriptional factor ATF-like [Homo sapiens], peptide sequence
Question: Which “effect on cDC1 reprogramming efficiency when co-expressed with PU.1, IRF8 and BATF3” value [2] does the source give for B6 here?
Answer: increased cDC1 reprogramming efficiency
